Results on 35 compounds are retold here after US4284621A, “Agents for protection against light” (Bayer Aktiengesellschaft, priority 1978, dated 1981).

Structures can show the parent of a compound that is named as a salt.

The nature of data set [1]: UV absorption spectral data (wavelength λmax, molar extinction ε, specific extinction E1^1). The format is physicochemical. Also on record: Wavelength λmax: unit not given beside the values. The settings on record: for Molar extinction ε: in M-1cm-1; for specific extinction (in words, compared with compounds of formula I): comparison with compounds of formula I.
Data set [2] is described as follows: Solubilities at room temperature (20-25° C.) in groundnut oil and groundnut oil/liquid paraffin 1:9. The format is physicochemical.
The mark [3] stands for this setting: Table 1, second value, in parentheses.

Turning to `COC(=O)C(C#N)=Cc1ccc(N(C)C)cc1` [4-Dimethylaminobenzylidenecyanoacetic acid methyl ester], in data set [1] (Table 1), the “Specific extinction E1^1” value worked out at 870, the “Wavelength λmax” value is reported as 421 and the “Molar extinction ε” value is 19,900.
Take “4-methoxy-benzylidene-cyanoacetic acid isodecyl ester [iso-Decyl]”: in data set [1] (Table II), the “Specific extinction E1^1” value amounted to 790, the “Wavelength λmax (nm)” value amounted to 341 nm and the “Molar extinction ε” value was 27,000.
As to `CCCCCOC(=O)C(C#N)=Cc1ccc(OC)cc1` [n-Pentyl], in data set [1] (Table II), the “Specific extinction E1^1” value was 1,050, the “Wavelength λmax (nm)” value was 341 nm and the “Molar extinction ε” value was 28,600. Further, in data set [2], the “Solubility at room temperature in groundnut oil (%)” value (from here on “Solubility … in groundnut oil (%)”) is 6-7% and the “Solubility at room temperature in groundnut oil/liquid paraffin 1:9 (%)” value is given as 1.4%.
`COC(=O)C(C#N)=Cc1ccccc1OC` [2-Methoxybenzylidenecyanoacetic acid methyl ester]: in data set [1] (Table 1), the “Specific extinction E1^1” value is recorded as 470, the “Wavelength λmax” value was 354 and the “Molar extinction ε” value is 10,300. Moreover, in data set [1] (setting [3]), the “Molar extinction ε (value in parentheses)” value is given as 12,100, the “Specific extinction E1^1 (value in parentheses)” value came out at 560 and the “Wavelength λmax (value in parentheses)” value is 297.
`COC(=O)C(=Cc1ccc(N(C)C)cc1)C(=O)OC` [4-Dimethylaminobenzylidenemalonic acid dimethyl ester]: in data set [1] (Table 1), the “Specific extinction E1^1” value was 1,200, the “Wavelength λmax” value worked out at 375 and the “Molar extinction ε” value was 31,400.
In the case of `CCCCCCCCCOC(=O)C(C#N)=Cc1ccc(OC)cc1` [n-Nonyl], in data set [1] (Table II), the “Specific extinction E1^1” value is 910, the “Wavelength λmax (nm)” value is 341 nm and the “Molar extinction ε” value is on record as 30,000. In addition, in data set [2], the “Solubility … in groundnut oil (%)” value is 55% and the “Solubility at room temperature in groundnut oil/liquid paraffin 1:9 (%)” value came out at 10%.
As to `COc1ccc(C=C(C(=O)OCC(C)C)C(=O)OCC(C)C)cc1` [4-Methoxybenzylidenemalonic acid diisobutyl ester], in data set [1] (Table 1), the “Specific extinction E1^1” value stood at 740, the “Wavelength λmax” value is listed as 312 and the “Molar extinction ε” value was 24,800.
With `COc1ccc(C=C(C#N)C(N)=O)cc1` [4-Methoxybenzylidenecyanoacetic acid amide], in data set [1] (Table 1), the “Specific extinction E1^1” value is 1,200, the “Wavelength λmax” value worked out at 332 and the “Molar extinction ε” value is given as 24,300.
In the case of `COC(=O)C(C#N)=Cc1ccc(Cl)cc1` [4-Chlorobenzylidenecyanoacetic acid methyl ester], in data set [1] (Table 1), the “Specific extinction E1^1” value was determined as 940, the “Wavelength λmax” value came out at 313 and the “Molar extinction ε” value is given as 20,900.
On to `CCOC(=O)C(=Cc1ccc(OC)cc1)C(C)=O` [4-Methoxybenzylideneacetoacetic acid ethyl ester], for which, in data set [1] (Table 1), the “Specific extinction E1^1” value is 770, the “Wavelength λmax” value turned out to be 316 and the “Molar extinction ε” value is reported as 19,000.
Take `CCOC(=O)C(=Cc1cccc(O)c1)C(=O)OCC` [3-Hydroxybenzylidenemalonic acid diethyl ester]: in data set [1] (Table 1), the “Specific extinction E1^1” value amounted to 770, the “Wavelength λmax” value amounted to 282 and the “Molar extinction ε” value was 20,300.
Consider `CN(C)c1ccc(C=C(C(N)=O)C(N)=O)cc1` [4-Dimethylaminobenzylidenemalonic acid diamide], for which, in data set [1] (Table 1), the “Specific extinction E1^1” value amounted to 870, the “Wavelength λmax” value worked out at 369 and the “Molar extinction ε” value is on record as 20,400.
`CCCCCCCCCCCCOC(=O)C(C#N)=Cc1ccc(OC)cc1` [n-Dodecyl]: in data set [1] (Table II), the “Specific extinction E1^1” value worked out at 770, the “Wavelength λmax (nm)” value is recorded as 342 nm and the “Molar extinction ε” value is reported as 28,450. Further, the “Solubility … in groundnut oil (%)” value in data set [2] stood at 14%.
As to `COc1ccc(C=C(C#N)C(=O)N(CC(C)C)CC(C)C)cc1` [4-Methoxybenzylidenecyanoacetic acid diisobutylamide], in data set [1] (Table 1), the “Specific extinction E1^1” value is 510, the “Wavelength λmax” value turned out to be 325 and the “Molar extinction ε” value is recorded as 15,900.
In the case of `COC(=O)C(C#N)=Cc1ccc(OC)c(OC)c1` [3,4-Dimethoxybenzylidenecyanoacetic acid methyl ester], in data set [1] (Table 1), the “Specific extinction E1^1” value stood at 970, the “Wavelength λmax” value was 360 and the “Molar extinction ε” value is reported as 24,000.
Turning to `COC(=O)C(C#N)=Cc1ccc(O)c(OC)c1` [4-Hydroxy-3-methoxybenzylidenecyanoacetic acid methyl ester], in data set [1] (Table 1), the “Specific extinction E1^1” value turned out to be 960, the “Wavelength λmax” value is 366 and the “Molar extinction ε” value is given as 22,400.
With `COc1ccc(C(=O)c2cc(S(=O)(=O)O)c(OC)cc2O)c(O)c1` [(1), sodium salt of 2,2'-dihydroxy-4,4'-dimethoxybenzophenone-5-sulphonic acid], in data set [1] (Table II), the “Specific extinction E1^1” value was found to be 160; the “Wavelength λmax (nm)” value came out at 330 nm; the “Molar extinction ε” value was 5,920; the “specific extinction (in words, compared with compounds of formula I)” value is “significantly lower specific extinction”.
Consider `CCCCCCCOC(=O)C(C#N)=Cc1ccc(OC)cc1` [n-Heptyl], for which, in data set [1] (Table II), the “Specific extinction E1^1” value is 940, the “Wavelength λmax (nm)” value amounted to 341 nm and the “Molar extinction ε” value is 28,300. Further, in data set [2], the “Solubility … in groundnut oil (%)” value was 33% and the “Solubility at room temperature in groundnut oil/liquid paraffin 1:9 (%)” value came to 7%.
For `CCCCCCCCCCOC(=O)C(C#N)=Cc1ccc(OC)cc1` [n-Decyl, 4-methoxy-benzylidene-cyanoacetic acid n-decyl ester], in data set [1] (Table II), the “Specific extinction E1^1” value is 810, the “Wavelength λmax (nm)” value is 341 nm and the “Molar extinction ε” value is 27,700.
For `COC(=O)C(C#N)=Cc1cccc(N)c1` [3-Aminobenzylidenecyanic acid methyl ester], in data set [1] (Table 1), the “Specific extinction E1^1” value is on record as 830, the “Wavelength λmax” value was 310 and the “Molar extinction ε” value was 16,800.
On to `COc1ccc(C(=O)CC(=O)c2ccc(OC)cc2)cc1` [(3), dianisoylmethane], for which, in data set [2], the “Solubility … in groundnut oil (%)” value was 1%.
For `O=C(c1ccc(O)cc1O)c1ccc(O)cc1O` [(2), 2,2',4,4'-tetrahydroxybenzophenone], in data set [1] (Table II), the “Specific extinction E1^1” value came to 645; the “Wavelength λmax (nm)” value is reported as 351 nm; the “Molar extinction ε” value is recorded as 15,900; the “specific extinction (in words, compared with compounds of formula I)” value is “significantly lower specific extinction”. Besides, the “Solubility … in groundnut oil (%)” value in data set [2] is reported as 0.8%.
Regarding `COC(=O)C(C#N)=Cc1ccco1` [Furfurylidenecyanoacetic acid methyl ester], in data set [1] (Table 1), the “Specific extinction E1^1” value is on record as 1,530, the “Wavelength λmax” value was determined as 337 and the “Molar extinction ε” value is given as 27,000.
For the compound `COC(=O)C(C#N)=Cc1cccc(OC)c1` [3-Methoxybenzylidenecyanoacetic acid methyl ester], in data set [1] (Table 1), the “Specific extinction E1^1” value is listed as 710, the “Wavelength λmax” value was determined as 299 and the “Molar extinction ε” value is 15,300.
For the compound `COC(=O)C(C#N)=Cc1ccc(O)cc1` [4-Hydroxybenzylidenecyanoacetic acid methyl ester], in data set [1] (Table 1), the “Specific extinction E1^1” value is 1,350, the “Wavelength λmax” value was 348 and the “Molar extinction ε” value is on record as 27,300.
In the case of `COC(=O)C(C#N)=C(c1ccccc1)c1ccccc1` [α-Cyano-β,β-diphenyl-acrylic acid methyl], in data set [1] (Table 1), the “Specific extinction E1^1” value is on record as 520 and the “Molar extinction ε” value is 14,000.
Take `COC(=O)C(C#N)=Cc1ccc(C)cc1` [4-Methylbenzylidenecyanoacetic acid methyl ester]: in data set [1] (Table 1), the “Specific extinction E1^1” value is given as 1,230, the “Wavelength λmax” value was determined as 317 and the “Molar extinction ε” value is 25,000.
Taken in the same sequence, the figures for `C=C(C)C(=O)Oc1ccc(C=C(C#N)C(=O)OC)cc1` [4-Methacryloxybenzylidenecyanoacetic acid methyl ester] were 1,230, 312 and 23,000.
In the case of `CCOC(=O)C(=Cc1ccc(OC)c(OC)c1)C(=O)OCC` [3,4-Dimethoxybenzylidenemalonic acid diethyl ester], in data set [1] (Table 1), the “Specific extinction E1^1” value came to 670, the “Wavelength λmax” value came to 308 and the “Molar extinction ε” value is listed as 20,500.
On to `COC(=O)C(C#N)=C(C)c1ccc(OC)cc1` [α-Cyano-β-methyl-β-(4-methoxyphenyl)-acrylic acid methyl ester], for which, in data set [1] (Table 1), the “Specific extinction E1^1” value was found to be 460, the “Wavelength λmax” value is reported as 318 and the “Molar extinction ε” value is reported as 10,900.
As for `CCOC(=O)C(=Cc1ccc(O)c(OC)c1)C(=O)OCC` [4-Hydroxy-3-methoxybenzylidenemalonic acid diethyl ester], in data set [1] (Table 1), the “Specific extinction E1^1” value turned out to be 630, the “Wavelength λmax” value is reported as 332 and the “Molar extinction ε” value is given as 20,750.
Turning to `CCOC(=O)C(=Cc1ccc(O)c(OC)c1)C(C)=O` [4-Hydroxy-3-methoxybenzylideneacetoacetic acid ethyl ester], in data set [1] (Table 1), the “Specific extinction E1^1” value came out at 690, the “Wavelength λmax” value was found to be 340 and the “Molar extinction ε” value is 18,200.
`CCCCCCCCOC(=O)C(C#N)=Cc1ccc(OC)cc1` [n-Octyl, 4-methoxy-benzylidene-cyanoacetic acid n-octyl ester]: in data set [1] (Table II), the “Specific extinction E1^1” value is on record as 970, the “Wavelength λmax (nm)” value is listed as 341 nm and the “Molar extinction ε” value is on record as 30,500. In addition, the “Solubility at room temperature in groundnut oil/liquid paraffin 1:9 (%)” value in data set [2] worked out at 90%.
Take `COC(=O)C(C#N)=Cc1cccc(O)c1` [3-Hydroxybenzylidenecyanoacetic acid methyl ester]: in data set [1] (Table 1), the “Specific extinction E1^1” value is given as 900, the “Wavelength λmax” value is on record as 303 and the “Molar extinction ε” value is reported as 18,200.
Consider `COC(=O)C(C#N)=Cc1ccc(OC)cc1` [4-Methoxybenzylidenecyanoacetic acid methyl ester], for which, in data set [1] (Table 1), the “Specific extinction E1^1” value is given as 1,350, the “Wavelength λmax” value is listed as 340 and the “Molar extinction ε” value is 29,300.
